According to a compilation of properties of binary mixtures (doi:10.1021/acs.jced.3c00537):

Test: xn = mol fraction of the nth substance listed
Conditions: 100 kPa

CC[n+]1ccn(C)c1.COP(=O)([O-])OC + CCO
viscosity [mPa·s]
Conditions | 293.15 K | 298.15 K | 303.15 K | 308.15 K | 313.15 K | 318.15 K | 323.15 K | 328.15 K | 333.15 K | 338.15 K
x1 = 0.1004 | 3.47 | 3.1 | 2.77 | 2.5 | 2.28 | 2.09 | 1.95 | 1.85 | – | 1.55
x1 = 0.2032 | 7.38 | 6.54 | 5.8 | 5.17 | 4.66 | 4.26 | 3.94 | 3.61 | 3.26 | 3.07
x1 = 0.3007 | 14.45 | 12.4 | – | 9.4 | – | – | 6.75 | 6.22 | 5.73 | 5.32
x1 = 0.3994 | 26.4 | 22.01 | 18.49 | 15.67 | 13.43 | 11.74 | 10.36 | 9.26 | 8.31 | 7.61
x1 = 0.5013 | 46.78 | – | 30.72 | 25.48 | 21.4 | 18.27 | – | 13.67 | 11.97 | 10.68
x1 = 0.5994 | 79.2 | 61.56 | – | 38.81 | – | 26.33 | 22.2 | 19.04 | 16.4 | 14.35
x1 = 0.7006 | – | – | 72.82 | 57.48 | 45.56 | 36.84 | 30.39 | – | – | 18.37
x1 = 0.8011 | 176.7 | – | 106.5 | 80.4 | 62.91 | 48.34 | – | 31.5 | 26.15 | 21.94
x1 = 0.8988 | 241 | 192.2 | 140.5 | 106.5 | 78.6 | 62.43 | 49.31 | 39.47 | 32.04 | –
x1 = 1 | 348 | 247 | 178.9 | – | – | 79.1 | 62.91 | 50.39 | – | 33.59

COP(=O)([O-])OC.Cn1cc[n+](C)c1 + CCO
viscosity [mPa·s]
Conditions | 293.15 K | 298.15 K | 303.15 K | 308.15 K | 313.15 K | 318.15 K | 323.15 K | 328.15 K | 333.15 K | 338.15 K
x1 = 0.1005 | – | 2.91 | – | 2.38 | 2.15 | 1.9 | 1.74 | 1.54 | – | 1.22
x1 = 0.2006 | 6.54 | 5.92 | – | 4.71 | 4.29 | 3.89 | 3.5 | 3.19 | 2.93 | 2.67
x1 = 0.3005 | 13.17 | 11.4 | – | 8.77 | 7.8 | – | – | 5.87 | – | 5.14
x1 = 0.4031 | 24.71 | 20.72 | 17.29 | 14.75 | – | 11.17 | 9.96 | 8.98 | 8.12 | 7.43
x1 = 0.4996 | 42.18 | 33.84 | 27.62 | 22.9 | 19.31 | 16.65 | 14.39 | – | 11.07 | –
x1 = 0.6043 | 70.07 | 54.83 | 43.41 | 35.07 | 28.85 | 24.13 | 20.39 | 17.54 | 15.17 | 13.3
x1 = 0.7009 | 111.3 | – | 64.5 | 50.89 | 40.71 | – | – | 22.99 | – | 16.89
x1 = 0.797 | – | 118.8 | 89.5 | 69.03 | – | 43.34 | – | – | 24.3 | 20.61
x1 = 0.8995 | 235.4 | – | 125.2 | – | 72.72 | 58.89 | – | 36.94 | – | 25.28
x1 = 1 | 331 | 232.5 | 165.8 | – | 93.5 | – | 57.09 | 45.49 | 36.7 | 30.05

CCO + CC[n+]1ccn(C)c1.COP(=O)([O-])OC
x2 = 0
Conditions | viscosity [mPa·s]
293.15 K | 1.18
303.15 K | 0.976
308.15 K | 0.89
313.15 K | 0.815
318.15 K | 0.75
323.15 K | 0.694
333.15 K | 0.603
338.15 K | 0.564

CCO + COP(=O)([O-])OC.Cn1cc[n+](C)c1
x2 = 0
Conditions | viscosity [mPa·s]
293.15 K | 1.18
303.15 K | 0.976
313.15 K | 0.815
318.15 K | 0.75
323.15 K | 0.694
333.15 K | 0.603
338.15 K | 0.564
